Measured values: BigSolDB 2.1

## C=CC1=C(C(=O)O)N2C(=O)[C@@H](NC(=O)/C(=N\OCC(=O)O)c3csc(N)n3)[C@H]2SC1.O.O.O
In acetonitrile, 283.1 K
  solubility (mole fraction): 8.28e-05
In acetonitrile, 293.1 K
  solubility (mole fraction): 0.000105
In acetonitrile, 303.1 K
  solubility (mole fraction): 0.000127
In acetonitrile, 313.1 K
  solubility (mole fraction): 0.000183
In acetonitrile, 323.1 K
  solubility (mole fraction): 0.000292
In ethyl acetate, 283.1 K
  solubility (mole fraction): 5.08e-05
In ethyl acetate, 293.1 K
  solubility (mole fraction): 7.12e-05
In ethyl acetate, 303.1 K
  solubility (mole fraction): 0.000129
In ethyl acetate, 313.1 K
  solubility (mole fraction): 0.000175
In ethyl acetate, 323.1 K
  solubility (mole fraction): 0.00025
In methanol, 283.1 K
  solubility (mole fraction): 0.00635
In methanol, 293.1 K
  solubility (mole fraction): 0.00892
In methanol, 303.1 K
  solubility (mole fraction): 0.0132
In methanol, 313.1 K
  solubility (mole fraction): 0.0209
In methanol, 323.1 K
  solubility (mole fraction): 0.0309
In water, 283.1 K
  solubility (mole fraction): 9.7e-06
In water, 293.1 K
  solubility (mole fraction): 1.45e-05
In water, 303.1 K
  solubility (mole fraction): 2.02e-05
In water, 313.1 K
  solubility (mole fraction): 3.18e-05
In water, 323.1 K
  solubility (mole fraction): 5.09e-05

## Cc1c(O)c(=O)ccn1C
In acetonitrile, 283.1 K
  solubility (mole fraction): 0.000187
In acetonitrile, 293.1 K
  solubility (mole fraction): 0.000324
In acetonitrile, 303.1 K
  solubility (mole fraction): 0.000599
In acetonitrile, 313.1 K
  solubility (mole fraction): 0.00091
In acetonitrile, 323.1 K
  solubility (mole fraction): 0.00137
In ethyl acetate, 283.1 K
  solubility (mole fraction): 6.77e-05
In ethyl acetate, 293.1 K
  solubility (mole fraction): 0.000104
In ethyl acetate, 303.1 K
  solubility (mole fraction): 0.000155
In ethyl acetate, 313.1 K
  solubility (mole fraction): 0.000218
In ethyl acetate, 323.1 K
  solubility (mole fraction): 0.000318
In methanol, 283.1 K
  solubility (mole fraction): 0.00194
In methanol, 293.1 K
  solubility (mole fraction): 0.00348
In methanol, 303.1 K
  solubility (mole fraction): 0.0052
In methanol, 313.1 K
  solubility (mole fraction): 0.00775
In methanol, 323.1 K
  solubility (mole fraction): 0.0114
In water, 283.1 K
  solubility (mole fraction): 0.00184
In water, 293.1 K
  solubility (mole fraction): 0.00227
In water, 303.1 K
  solubility (mole fraction): 0.0031
In water, 313.1 K
  solubility (mole fraction): 0.00414
In water, 323.1 K
  solubility (mole fraction): 0.00532
